# Measured values: US5057325A, “Method of inhibiting replication of HIV with water-soluble melanins” (Vanderbilt University, priority 1990, dated 1991)
# Tested on: HIV-1 (HTLV-IIIB)
# Assay type: cell-based
# Settings: at 1-100 μg/ml; in these assays (HTLV-IIIB, HTLV-IIIRF, HIV-2ROD infection of MT-2 cells)
# Text: The activity of the melanins for inhibiting replication of HIV can be confirmed by known assays, including particularly the assay described by Montefiori, et al., J. Clin. Microb., 26:231-235, 1988. That assay utilizes human T-cell lymphotropic virus type I-immortalized MT-2 cells as targets for infection. Cytolysis can be quantitated by vital dye uptake of poly-L-lysine-adhered cells as an endpoint for infection. The MT-cell assay has now been accepted as a standard screening test.
# Antiviral activities of the synthetic water-soluble melanins derived as described in Example I from L-tyrosine, L-dopa, dopamine, serotonin, norepinephrine, L-dopa/glutathione, and L-dopa/ L-cysteine were measured in 96 well microdilution plates as described (Montefiori, et al., J. Clin. Microbiol. 26:231-235, 1988). Briefly, 2-fold serial dilutions of melanins were made in triplicate in a total of 100 ul growth medium (RPMI-1640 containing 12% heat-inactivated fetal bovine serum and 50 ug gentamicin/ml) per well. MT-2 cells (5×10^4) in 100 ul of growth medium were added to each well and incubated for 10 minutes. […] Viral-induced cytopathic effect (CPE) was quantitated 3 days later by vital dye (neutral red) uptake in remaining viable cells. […]
row,Substance,antiviral activity
1,L-dopa,no antiviral activity
2,L-tyrosine,no antiviral activity
